Reference: US11001563B2, “SSAO inhibitor” (SHANDONG DANHONG PHARMACEUTICAL CO., LTD., priority 2017, dated 2021)

How the values were obtained:
VAP-1/SSAO [1] = target: T1, VAP-1/SSAO (Homo sapiens (Human), UniProt Q16853); assay: Human VAP-1 enzyme activity assay (Amplex Red Monoamine Oxidase kit); assay type: biochemical; conditions: 10 nM VAP-1 enzyme, 30 min preincubation, benzylamine substrate; read-out: Human Recombinant VAP-1/SSAO Enzyme Inhibitory Activity IC50
Description: Human VAP-1 enzyme activity assay:
The inhibition of the sample on VAP-enzyme activity was measured by using an Amplex® Red Monoamine Oxidase kit (Invitrogen #A12214). 100 nL of the gradiently-diluted to-be-tested compound (solvent DMSO) was added to a 384-well plate. 25 μL of 10 nM VAP-1 enzyme solution was added and incubated for 30 minutes at room temperature. A substrate mixture of VAP-1 enzyme (200 μM Amplex Red, 1 U/mL HRP, 1 mM Benzylamine) was added and incubated for 60 minutes at room temperature. After the incubation, the fluorescent signal was read with a microplate reader Envision (excitation light wavelength 530-560 nm, emission light wavelength 590 nm). The fluorescence signal value after the background signal was removed was analyzed by Prism software, and the IC50 of the sample against the VAP-1 enzyme was calculated.

VAP-1/SSAO [2] = target: T1, VAP-1/SSAO; assay: VAP-1 cell activity assay (HUVEC or CHO cells transfected with VAP-1/pCDNA (3.1) plasmid, Amplex Red); assay type: cell-based; conditions: HUVEC or CHO cells transfected with VAP-1 plasmid; read-out: VAP-1/SSAO Cellular Inhibitory Activity IC50
Description: The inhibition of the sample on VAP-1 cell activity was measured by using an Amplex® Red Monoamine Oxidase kit (Invitrogen #A12214).
The cultured HUVEC or CHO cells were plated into a 6-well plate at a density of 0.8 M/well, placed in a 37° C., 5% CO2 incubator for incubation for 24 hours, and then the cells was transferred with a Lipo2000 reagent and a VAP-1/pCDNA (3.1) plasmid, and liquid was changed for the cells after 5 hours (Lipo2000 was toxic to the cells); after 24 hours, the cells were digested and plated into 384-well plates with a density of 25 μl, 10000 cells/well, and liquid was replaced with medium without FBS for the cells after 6-7 hours, and the cell plates were incubated overnight at 37° C. in a 5% CO2 incubator.
1) Dilution of the compound: serial dilution in 4× gradient was carried out with 100% DMSO, 10 points were diluted, the starting concentration of the to-be-tested compound was 0.5 mM (final concentration was 1 μM); 100 nl of compound solution was transferred to a 384-well cell assay plate with ECHO. Negative control wells: 100 nl of DMSO; background control wells: 100 nl DMSO+25 μL medium.
2) The reaction was carried out in the dark at room temperature for 30 min.
3) Preparation of Amplex Red reagent+HRP+benzylamine substrate working solution: Amplex Red reagent+HRP+benzylamine substrate working solution (200 μM Amplex Red reagent+1 U/mL HRP+1 mM benzylamine): 45 μl of 20 mM Amplex Red reagent mother solution, 22.5 μl of 200 U/ml horseradish peroxidase (HRP) mother solution and 45 ul of 100 mM benzylamine were tanken and added to 4.3875 ml of 1× reaction buffer.
4) After 30 min, 25 μl of the substrate working solution was added to a 384-well plate, and a final concentration was 100 μM Amplex Red reagent+0.5 U/mL HRP+0.5 mM benzylamine, respectively.
5) The reaction was carried out in the dark at room temperature for 60 minutes, and the fluorescence value was measured by Envision: the excitation wave was 535 nm, and the emission wave was 590 nm.
6) Inhibition rate calculation formula: % inhibition rate=(1−(test hole minus background−positive control well minus background)/(negative control well minus background-positive control well minus background))*100
7) The data were analyzed with Prism. The IC50 of the sample against VAP-1 cells was calculated.

hERG potassium channel = hERG potassium channel (Homo sapiens (Human), UniProt Q12809); assay: Inhibition test of hERG potassium ion channel (automatic patch clamp, CHO-hERG cells); assay type: cell-based
Description: The effect of the to-be-tested compound on the potassium ion channel of hERG was detected by a fully automatic patch clamp method.
The cells stably expressing hERG potassium channel used in the experiment were obtained from CHO-hERE of Aviva Biosciences, and CHO-hERG was cultured in 5% CO2 at 37° C.
CHO-hERG cells prepared for the experiment were cultured for at least two days, and the cell density reached 75% or more. Prior to the start of the experiment, cells were digested with TrypLE and then resuspended in extracellular fluid to collect the cells.
The to-be-tested compound and the positive control Amitriptyline were dissolved in DMSO to a certain concentration of the stock solution, and then diluted according to different gradients, and finally added to the extracellular fluid in a certain ratio, and diluted to a concentration to be measured. Visual inspection was performed to see if there was any precipitation before the start of the experiment. Finally, the concentration of DMSO in the to-be-tested solution and the positive control Amitriptyline should not exceed 0.3%.
The clamping potential was kept at −80 mv, first a voltage stimulation of −50 mv was given for 80 ms to record the cell leakage current value, and then was depolarized to +20 mv to be maintained for 4800 ms, the channel of hERG was open, and then repolarized to −50 mv to be maintained 5000 ms, hERG tail current was led out and recorded, and finally, the voltage was returned to the clamping potential of −80 mv to be maintained for 3100 ms. The above voltage stimulation was repeated once every 15000 ms.
hERG QPatch^HTX experiment was performed at room temperature. A whole cell protocol, a voltage stimulation protocol and a compound detection protocol were established on the software of QPatch Assay Software 5.2 (Sophion Bioscience).
First, 30 repeated set voltage stimulations were performed, which was the baseline area for subsequent analysis, followed by the addition of 5 μl of extracellular fluid, repeated for three times. The concentration of each compound added in sequence was repeated three times in a volume of 5 μl. The cells were incubated for at least 5 min at each test concentration. During the entire recording process, the indicators needed to meet the data analysis acceptance criteria. If the standard was not met, the cells would not be included in the analysis scope, and the compounds would be retested. The above recording process was automatically operated by Qpatch analysis software. […]
In each complete current record, based on the percentage of peak current in the negative control, the percent inhibition of the concentration of each compound can be calculated. […]

T1 sequence (Q16853 whole entry): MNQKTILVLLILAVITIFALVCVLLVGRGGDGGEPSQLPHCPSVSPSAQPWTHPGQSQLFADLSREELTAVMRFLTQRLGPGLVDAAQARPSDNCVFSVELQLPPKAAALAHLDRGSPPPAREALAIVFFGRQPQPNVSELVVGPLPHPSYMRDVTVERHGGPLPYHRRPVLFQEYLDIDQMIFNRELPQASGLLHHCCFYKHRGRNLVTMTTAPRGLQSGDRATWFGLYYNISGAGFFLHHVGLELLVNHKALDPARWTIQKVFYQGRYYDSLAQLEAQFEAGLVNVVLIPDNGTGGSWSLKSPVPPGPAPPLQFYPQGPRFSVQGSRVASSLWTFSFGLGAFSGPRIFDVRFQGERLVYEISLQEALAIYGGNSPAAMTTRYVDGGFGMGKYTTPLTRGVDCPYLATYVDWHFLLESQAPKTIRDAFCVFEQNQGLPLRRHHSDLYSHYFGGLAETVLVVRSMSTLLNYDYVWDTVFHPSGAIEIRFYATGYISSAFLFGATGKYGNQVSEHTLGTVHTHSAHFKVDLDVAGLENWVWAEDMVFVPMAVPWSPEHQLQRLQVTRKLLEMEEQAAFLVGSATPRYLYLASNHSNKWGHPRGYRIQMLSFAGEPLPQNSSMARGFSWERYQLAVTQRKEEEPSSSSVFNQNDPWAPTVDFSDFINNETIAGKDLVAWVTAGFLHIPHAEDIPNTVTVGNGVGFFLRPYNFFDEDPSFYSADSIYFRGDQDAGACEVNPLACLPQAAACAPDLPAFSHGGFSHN
Sequence of hERG potassium channel (Q12809 whole entry): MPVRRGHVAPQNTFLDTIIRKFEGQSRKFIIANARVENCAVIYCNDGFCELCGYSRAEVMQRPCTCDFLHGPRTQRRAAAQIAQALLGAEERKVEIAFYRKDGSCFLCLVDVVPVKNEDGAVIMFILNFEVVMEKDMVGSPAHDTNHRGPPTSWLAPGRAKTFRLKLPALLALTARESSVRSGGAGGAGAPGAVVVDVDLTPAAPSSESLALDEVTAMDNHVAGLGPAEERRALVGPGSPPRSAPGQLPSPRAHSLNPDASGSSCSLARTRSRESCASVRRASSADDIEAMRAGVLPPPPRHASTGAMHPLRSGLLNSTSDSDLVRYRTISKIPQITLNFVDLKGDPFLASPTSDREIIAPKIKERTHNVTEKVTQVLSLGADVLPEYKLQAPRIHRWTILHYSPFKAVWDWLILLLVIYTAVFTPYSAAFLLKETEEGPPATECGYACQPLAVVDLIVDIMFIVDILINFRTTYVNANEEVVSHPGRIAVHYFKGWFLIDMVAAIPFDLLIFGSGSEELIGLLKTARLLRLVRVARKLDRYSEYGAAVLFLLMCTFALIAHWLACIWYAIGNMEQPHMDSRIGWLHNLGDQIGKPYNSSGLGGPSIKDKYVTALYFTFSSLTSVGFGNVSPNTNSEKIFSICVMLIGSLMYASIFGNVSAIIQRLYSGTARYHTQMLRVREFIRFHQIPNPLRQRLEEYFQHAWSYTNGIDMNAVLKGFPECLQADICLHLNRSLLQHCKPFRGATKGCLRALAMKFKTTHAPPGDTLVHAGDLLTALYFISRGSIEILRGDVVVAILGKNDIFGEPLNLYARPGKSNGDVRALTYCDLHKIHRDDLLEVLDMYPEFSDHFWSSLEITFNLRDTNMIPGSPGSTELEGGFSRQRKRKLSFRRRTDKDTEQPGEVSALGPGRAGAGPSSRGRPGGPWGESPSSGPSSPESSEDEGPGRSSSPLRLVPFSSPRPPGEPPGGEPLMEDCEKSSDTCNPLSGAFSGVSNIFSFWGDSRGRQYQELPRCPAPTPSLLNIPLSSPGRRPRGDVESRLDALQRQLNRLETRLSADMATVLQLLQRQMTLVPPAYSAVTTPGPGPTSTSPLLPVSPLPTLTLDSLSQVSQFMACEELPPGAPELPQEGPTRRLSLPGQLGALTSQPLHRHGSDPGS

Structure (SMILES) | IC50 (VAP-1/SSAO [1]) [nM] | IC50 (VAP-1/SSAO [2]) [nM] | IC50 (hERG potassium channel; QPatch whole cell patch clamp, CHO-hERG, 0.24-30.00 μM) [nM] | Inhibition of hERG potassium current (in words) (hERG potassium channel; conclusion statement)
Cc1noc(-c2ccc(OC/C(=C/F)CN)cc2)n1.Cl [WX008] | 0.4 | 0.3 | > 30000 | weak inhibition
NC/C(=C\F)COc1ccc(-c2nc(C3CC3)no2)cc1 [WX016] | 1 | 0.2 | – | –
NC/C(=C\F)COc1ccc(-c2nc(C3CC3)n[nH]2)cc1 [WX034] | 0.8 | 0.4 | – | –
NC/C(=C\F)COc1ccc(-c2nc(C(F)F)n[nH]2)cc1 [WX088] | 0.4 | 1.6 | – | –
CC(C)n1nc(-c2ccc(OC/C(=C/F)CN)cc2)nc1C1CC1 [WX091] | 1.2 | 1.3 | – | –
NC/C(=C\F)COc1ccc(-c2nc(C3CCOCC3)n[nH]2)cc1 [WX093] | 0.3 | – | – | –
NC/C(=C\F)COc1ccc(-c2nc(C3CC3)n[nH]2)c(F)c1 [WX094] | 0.3 | – | – | –
Cn1nc(-c2ccc(OC/C(=C/F)CN)cc2)nc1C1CCOCC1 [WX095] | 2.9 | 0.2 | – | –
NC/C(=C\F)COc1cc(F)c(-c2nc(N3CCOCC3)n[nH]2)c(F)c1 [WX099] | 3.4 | – | – | –
NC/C(=C\F)COc1ccc(-c2nc(N3CCOCC3)n[nH]2)c(F)c1 [WX100] | 1.1 | – | – | –
NC/C(=C\F)COc1ccc(-c2nc(CC(F)(F)F)n[nH]2)cc1 [WX101] | 0.4 | 0.4 | – | –
Cc1nc(-c2ccc(OC/C(=C/F)CN)cc2)sc1N1CCOCC1 [WX102] | 0.4 | – | – | –
NC/C(=C\F)COc1ccc(-c2nc(CC3CCCC3)n[nH]2)cc1 [WX103] | 0.2 | – | – | –
Cn1nc(-c2ccc(OC/C(=C/F)CN)cc2)nc1CC(F)(F)F [WX105] | 0.5 | – | – | –
CC1(C)CN=C(c2ccc(OC/C(=C/F)CN)cc2)N1 [WX106] | 1.1 | – | – | –
Cn1nc(-c2ccc(OC/C(=C/F)CN)cc2Cl)nc1N1CCOCC1 [WX107] | 0.9 | 1.5 | – | –
Cc1nc(-c2ccc(OC/C(=C/F)CN)cc2)sc1C [WX111] | 0.4 | – | – | –
NC/C(=C\F)COc1ccc(-c2nc(C3CC3)n(CCO)n2)cc1 [WX112] | 1.7 | 0.9 | – | –
NC/C(=C\F)COc1ccc(-c2nc(C3CC3)n(CC(F)(F)F)n2)cc1 [WX113] | 1.1 | 0.9 | – | –
Cn1nc(-c2ccc(OC/C(=C/F)CN)cc2)nc1N1CCOCC1 [WX122] | 1 | – | – | –
CC(C)n1nc(-c2ccc(OC/C(=C/F)CN)cc2)nc1N1CCOCC1 [WX123] | 2.2 | – | – | –
CC(C)n1nc(-c2ccc(OC/C(=C/F)CN)cc2)nc1C(F)F [WX124] | 1.4 | – | – | –

More lines, main results first:

IC50 (VAP-1/SSAO [1]) [nM] | IC50 (VAP-1/SSAO [2]) [nM] | Structure (SMILES) | IC50 (hERG potassium channel; QPatch whole cell patch clamp, CHO-hERG, 0.24-30.00 μM) [nM] | Inhibition of hERG potassium current (in words) (hERG potassium channel; conclusion statement)
0.8 | 0.3 | CCn1nnc(-c2ccc(OC/C(=C/F)CN)cc2)n1 [WX014] | – | –
0.3 | 0.8 | NC/C(=C\F)COc1ccc(-c2nc(C3(F)CC3)n[nH]2)cc1 [WX087] | – | –
1.4 | – | CCn1nc(-c2ccc(OC/C(=C/F)CN)cc2)nc1C1CC1 [WX092] | – | –
0.8 | – | NC/C(=C\F)COc1ccc(-c2nc(C3CC3(F)F)n[nH]2)cc1 (stereo not shown) [WX096] | – | –
0.5 | 0.3 | CCCc1n[nH]c(-c2ccc(OC/C(=C/F)CN)cc2)n1 [WX097] | – | –
0.3 | 0.7 | Cn1nc(CC(F)(F)F)nc1-c1ccc(OC/C(=C/F)CN)cc1 [WX104] | – | –
2.8 | 0.7 | CC(C)n1nc(C(F)F)nc1-c1ccc(OC/C(=C/F)CN)cc1 [WX109] | – | –
0.7 | 0.9 | Cn1nc(C2(F)CC2)nc1-c1ccc(OC/C(=C/F)CN)cc1 [WX117] | – | –
0.7 | 0.7 | CCn1nc(C2(F)CC2)nc1-c1ccc(OC/C(=C/F)CN)cc1 [WX118] | – | –
1 | – | CCn1nc(-c2ccc(OC/C(=C/F)CN)cc2)nc1N1CCOCC1 [WX125] | – | –
0.8 | – | Cn1nc(-c2ccc(OC/C(=C/F)CN)cc2)nc1C1(F)CC1 [WX127] | – | –
1 | – | CCn1nc(-c2ccc(OC/C(=C/F)CN)cc2)nc1C(F)F [WX128] | – | –
1 | – | CCn1nc(-c2ccc(OC/C(=C/F)CN)cc2)nc1C1(F)CC1 [WX129] | – | –
1.4 | – | CC(C)n1nc(-c2ccc(OCC(=CF)CN)cc2)nc1C1(F)CC1 [WX130] | – | –
